# Patent US10183021B2, “sGC stimulators” (Ironwood Pharmaceuticals, Inc., priority 2013, dated 2019)
# Like-named read-outs stand apart in the source and are kept apart here.
# Target: soluble guanylate cyclase (sGC) (Homo sapiens (Human), UniProt Q02108+Q02153)
# Assay: sGC-HEK-cGMP assay, new protocol with DETA-NONOate, LC/MS detection (Example 2C)
# Type: cell-based
# Conditions: read-out: Absolute EC50 (uM) - binned
# Method: Human embryonic kidney cells (HEK293), endogenously expressing soluble guanylate cyclase (sGC), were used to evaluate the activity of test compounds. Compounds stimulating the sGC enzyme should cause an increase in the intracellular concentration of cGMP. HEK 293 cells were seeded in Dulbecco's Modification of Eagle's Medium supplemented with fetal bovine serum (10% final) and penicillin (100 U/mL)/streptomycin (100 μg/mL) in a 50 μL volume at a density of 1.5×10^4 cells/well in a poly-D-lysine coated 384 well flat bottom plate. Cells were incubated overnight at 37° C. in a humidified chamber with 5% CO2. Medium was aspirated and cells were washed with 1× Hank's Buffered Saline Salt Solution (50 μL). Cells were then incubated for 15 minutes at 37° C. with 50 μL of a 0.5 mM 3-isobutyl-1-methylxanthine (IBMX) solution. Test article and Diethylenetriamine NONOate (DETA-NONOate) solutions (x μM concentration for test article solution and 10 μM concentration for DETA-NONOate solution; wherein x is one of the following concentrations);
# were then added to the assay mixture and the resulting mixture incubated at 37° C. for 20 minutes. After the 20 minute incubation, the assay mixture was aspirated and 10% acetic acid containing 150 ng/mL+3-cGMP (internal standard for LCMS) (50 μL) was added to the cells. The plate was incubated at 4° C. for 30 minutes in the acetic acid solution to stop the reaction and lyse the cells. The plates were then centrifuged at 1,000 g for 3 minutes at 4° C. and the supernatant transferred to a clean reaction plate for LCMS analysis.
# cGMP concentrations were determined from each sample using the LCMS conditions below (Table 5) and calculated standard curve.
# Data were normalized to a high control using the following equation: 100*(Sample−Low Control)/(High Control−Low Control), where the low control is the average of 16 samples treated with 1% DMSO, and the high control is the average of 16 samples treated with 30 μM of 1-329 Data were fit using a 4-parameter fit (log(agonist) vs. response—variable slope) using GraphPad Prism Software v.5. n=2 for all compounds. […] Compounds failing to elicit a minimum response of 50% are reported as >30 μM.
# Chain of soluble guanylate cyclase (sGC) (Q02153 whole entry): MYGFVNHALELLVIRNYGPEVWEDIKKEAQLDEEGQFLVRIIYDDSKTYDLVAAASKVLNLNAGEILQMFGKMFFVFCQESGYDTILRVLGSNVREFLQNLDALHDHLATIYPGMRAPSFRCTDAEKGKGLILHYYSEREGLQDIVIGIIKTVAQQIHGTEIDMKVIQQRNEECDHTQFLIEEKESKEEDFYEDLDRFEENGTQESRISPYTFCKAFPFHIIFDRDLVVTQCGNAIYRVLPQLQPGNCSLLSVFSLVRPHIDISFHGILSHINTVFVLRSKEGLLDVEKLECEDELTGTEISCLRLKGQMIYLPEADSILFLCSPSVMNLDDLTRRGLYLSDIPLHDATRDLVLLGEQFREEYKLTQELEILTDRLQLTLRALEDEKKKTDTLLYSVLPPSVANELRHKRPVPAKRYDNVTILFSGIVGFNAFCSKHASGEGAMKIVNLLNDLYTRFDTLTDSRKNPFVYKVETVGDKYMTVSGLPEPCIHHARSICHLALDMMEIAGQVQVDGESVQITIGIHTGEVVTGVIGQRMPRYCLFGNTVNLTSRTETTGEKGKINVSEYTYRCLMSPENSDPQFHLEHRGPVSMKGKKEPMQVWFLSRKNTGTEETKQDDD
# Chain of soluble guanylate cyclase (sGC) (Q02108 whole entry): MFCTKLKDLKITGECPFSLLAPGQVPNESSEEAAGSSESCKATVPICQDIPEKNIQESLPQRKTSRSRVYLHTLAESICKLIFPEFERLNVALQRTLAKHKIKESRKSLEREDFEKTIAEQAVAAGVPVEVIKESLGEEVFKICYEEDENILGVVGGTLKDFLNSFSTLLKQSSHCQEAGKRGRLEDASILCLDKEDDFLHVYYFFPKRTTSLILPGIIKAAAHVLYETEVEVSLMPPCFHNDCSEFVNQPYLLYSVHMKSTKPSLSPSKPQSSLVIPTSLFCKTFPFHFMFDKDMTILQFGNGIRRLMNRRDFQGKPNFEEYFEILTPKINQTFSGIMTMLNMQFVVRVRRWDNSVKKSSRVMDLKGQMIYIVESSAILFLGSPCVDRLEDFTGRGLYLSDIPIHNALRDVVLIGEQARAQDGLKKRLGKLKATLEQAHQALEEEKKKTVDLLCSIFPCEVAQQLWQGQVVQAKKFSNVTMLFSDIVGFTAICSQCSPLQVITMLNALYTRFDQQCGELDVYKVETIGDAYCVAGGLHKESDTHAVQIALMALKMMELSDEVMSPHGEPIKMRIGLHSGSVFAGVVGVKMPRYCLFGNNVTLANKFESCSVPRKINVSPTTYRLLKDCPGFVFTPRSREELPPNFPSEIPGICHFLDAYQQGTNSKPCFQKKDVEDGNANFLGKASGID
SMILES,EC50 [µM],"EC50 (HEK293 cells, 10 μM DETA-NONOate, LC/MS detection, concentration eliciting 50% of high control response (30 μM I-329)) [µM]"
O=C(O)C(Nc1nc(-c2cc(-c3ccon3)n(Cc3ccccc3F)n2)ncc1F)C(F)(F)F (stereo not shown) [Compound I-403],0.101 to 1,
OCC(Nc1nc(-c2cc(-c3ccon3)n(Cc3ccccc3F)n2)ncc1F)C(F)(F)F (stereo not shown) [Compound I-404],0.101 to 1,
CC1(C(=O)O)CCCN(c2nc(-c3cc(-c4ccon4)n(Cc4ccccc4F)n3)ncc2F)C1 (stereo not shown) [Compound I-406],< 0.1,
OCCNc1nc(-c2cc(-c3ccon3)n(Cc3ccccc3F)n2)ncc1F [Compound I-407],< 0.1,
OCCCNc1nc(-c2cc(-c3ccon3)n(Cc3ccccc3F)n2)ncc1F [Compound I-408],< 0.1,
CCN(CC1(C(=O)O)CC1)c1nc(-c2cc(-c3ccon3)n(Cc3ccccc3F)n2)ncc1F [Compound I-409],< 0.1,
Cc1cc(-c2ncc(F)c(=O)[nH]2)nn1Cc1ccccc1F [Compound I-410],> 1,
Cc1cc(-c2ncc(F)c(N(C)CC3(C(=O)O)CC3)n2)nn1Cc1ccccc1F [Compound I-411],0.101 to 1,
Cc1cc(-c2ncc(F)c(N3CCC[C@H](C)[C@@H]3C(=O)O)n2)nn1Cc1ccccc1F [Compound I-412],> 1,
Cc1cc(-c2ncc(F)c(NC(CO)CO)n2)nn1Cc1ccccc1F [Compound I-413],> 1,
Cc1cc(-c2ncc(F)c(NCC(O)(C(F)(F)F)C(F)(F)F)n2)nn1Cc1ccccc1F [Compound I-414],> 1,
O=C(Nc1nc(-c2cc(-c3ccon3)n(Cc3ccccc3F)n2)ncc1F)C1(C(F)(F)F)CC1 [Compound I-415],> 1,
OCC(CO)Nc1cnnc(-c2cc(-c3ccon3)n(Cc3ccccc3F)n2)n1 [Compound I-416],> 1,
NC(=O)CNc1nc(-c2cc(-c3ccon3)n(Cc3ccccc3F)n2)ncc1F [Compound I-417],0.101 to 1,
O=C(O)CC(Nc1nc(-c2cc(-c3ccon3)n(Cc3ccccc3F)n2)ncc1F)C(F)(F)F (stereo not shown) [Compound I-418],0.101 to 1,
NC(=O)CC(Nc1nc(-c2cc(-c3ccon3)n(Cc3ccccc3F)n2)ncc1F)C(F)(F)F (stereo not shown) [Compound I-419],> 1,
CCOC(=O)C1(C)C(=O)Nc2nc(-c3cc(-c4ccon4)n(Cc4ccccc4F)n3)nc(N)c21 (stereo not shown) [Compound I-420],< 0.1,
CC1(C(N)=O)C(=O)Nc2nc(-c3cc(-c4ccon4)n(Cc4ccccc4F)n3)nc(N)c21 (stereo not shown) [Compound I-421],0.101 to 1,
CC1(C(=O)NC2CC2)C(=O)Nc2nc(-c3cc(-c4ccon4)n(Cc4ccccc4F)n3)nc(N)c21 (stereo not shown) [Compound I-422],0.101 to 1,
O=S(=O)(C1CCN(c2nc(-c3cc(-c4ccon4)n(Cc4ccccc4F)n3)ncc2F)CC1)N1CCOCC1 [Compound I-423],< 0.1,
O=C(O)[C@@H]1CN(c2nc(-c3cc(-c4ccon4)n(Cc4ccccc4F)n3)ncc2F)C[C@H]1C(F)(F)F [Compound I-424],< 0.1,
O=C(NS(=O)(=O)C1CCN(c2nc(-c3cc(-c4ccon4)n(Cc4ccccc4F)n3)ncc2F)CC1)C1CC1 [Compound I-425],< 0.1,
CC(=O)NS(=O)(=O)C1CCN(c2nc(-c3cc(-c4ccon4)n(Cc4ccccc4F)n3)ncc2F)CC1 [Compound I-426],< 0.1,
NS(=O)(=O)C1CCN(c2nc(-c3cc(-c4ccon4)n(Cc4ccccc4F)n3)ncc2F)C1 (stereo not shown) [Compound I-427],< 0.1,
OCCN(CCO)c1nc(-c2cc(-c3ccon3)n(Cc3ccccc3F)n2)ncc1F [Compound I-428],< 0.1,
O=C(NS(=O)(=O)C1CCN(c2nc(-c3cc(-c4ccon4)n(Cc4ccccc4F)n3)ncc2F)C1)C1CC1 (stereo not shown) [Compound I-429],< 0.1,
OC[C@@H]1[C@H](O)CCN1c1nc(-c2cc(-c3ccon3)n(Cc3ccccc3F)n2)ncc1F [Compound I-430],< 0.1,

SMILES,EC50 [µM],"EC50 (HEK293 cells, 10 μM DETA-NONOate, LC/MS detection, concentration eliciting 50% of high control response (30 μM I-329)) [µM]"
CC(O)CN(CC(C)O)c1nc(-c2cc(-c3ccon3)n(Cc3ccccc3F)n2)ncc1F (stereo not shown) [Compound I-431],< 0.1,
O=S(=O)(CCNc1nc(-c2cc(-c3ccon3)n(Cc3ccccc3F)n2)ncc1F)NO [Compound I-432],< 0.1,
O=C1C=C(O)CN(c2nc(-c3cc(-c4ccon4)n(Cc4ccccc4F)n3)ncc2F)C1 [Compound I-433],> 1,
OCC1(O)CCN(c2nc(-c3cc(-c4ccon4)n(Cc4ccccc4F)n3)ncc2F)CC1 [Compound I-434],< 0.1,
OC[C@@H]1C[C@@H](O)CN1c1nc(-c2cc(-c3ccon3)n(Cc3ccccc3F)n2)ncc1F [Compound I-435],< 0.1,
O=S(=O)(CCNc1nc(-c2cc(-c3ccon3)n(Cc3ccccc3F)n2)ncc1F)NC[C@H](O)CO [Compound I-437],0.101 to 1,
NC(=O)C1(O)CCN(c2nc(-c3cc(-c4ccon4)n(Cc4ccccc4F)n3)ncc2F)CC1 [Compound I-438],< 0.1,
O=S(=O)(CCNc1nc(-c2cc(-c3ccon3)n(Cc3ccccc3F)n2)ncc1F)NCCO [Compound I-439],< 0.1,
O=C(NC1CN(c2nc(-c3cc(-c4ccon4)n(Cc4ccccc4F)n3)ncc2F)C1)C1(O)CC1 [Compound I-440],0.101 to 1,
O=c1[nH]nc(CNc2nc(-c3cc(-c4ccon4)n(Cc4ccccc4F)n3)ncc2F)[nH]1 [Compound I-441],0.101 to 1,
O=c1nc[nH]n1-c1nc(-c2cc(-c3ccon3)n(Cc3ccccc3F)n2)ncc1F [Compound I-442],> 1,
NC(=O)C(O)CNc1nc(-c2cc(-c3ccon3)n(Cc3ccccc3F)n2)ncc1F (stereo not shown) [Compound I-443],0.101 to 1,
O=S(=O)(CC(F)(F)F)Nc1ccnc(-c2cc(-c3ccon3)n(Cc3ccccc3F)n2)n1 [Compound I-444],0.101 to 1,0.101 to 1
O=S(=O)(CCC(F)(F)F)Nc1nc(-c2cc(-c3ccon3)n(Cc3ccccc3F)n2)ncc1F [Compound I-445],0.101 to 1,
COCCS(=O)(=O)Nc1nc(-c2cc(-c3ccon3)n(Cc3ccccc3F)n2)ncc1F [Compound I-446],> 1,
O=C(O)c1ccc(CNc2nc(-c3cc(-c4ccon4)n(Cc4ccccc4F)n3)ncc2F)s1 [Compound I-448],0.101 to 1,
O=C(O)CCCCNc1nc(-c2cc(-c3ccon3)n(Cc3ccccc3F)n2)ncc1F [Compound I-449],< 0.1,
CC(=O)c1cc(-c2ncc(F)c(O)n2)nn1Cc1ccccc1F [Compound I-450],> 1,
CC(=O)c1cc(-c2ncc(F)c(N(C)CC3(C(=O)O)CC3)n2)nn1Cc1ccccc1F [Compound I-451],0.101 to 1,
NS(=O)(=O)Nc1ccnc(-c2cc(-c3ccon3)n(Cc3ccccc3F)n2)n1 [Compound I-456],0.101 to 1,
C[C@H]1CCCN(c2nc(-c3cc(C#N)n(Cc4ccccc4F)n3)ncc2F)[C@H]1C(=O)O [Compound I-457],0.101 to 1,
O=C1C=C(O)CC(C(=O)Nc2ccnc(-c3cc(-c4ccon4)n(Cc4ccccc4F)n3)n2)C1 (stereo not shown) [Compound I-458],> 1,
O=C1CCC(C(=O)Nc2ccnc(-c3cc(-c4ccon4)n(Cc4ccccc4F)n3)n2)N1 (stereo not shown) [Compound I-459],> 1,
N#CC1(C(=O)Nc2nc(-c3cc(-c4ccon4)n(Cc4ccccc4F)n3)ncc2F)CC1 [Compound I-460],> 1,
O=C(Nc1ccnc(-c2cc(-c3ccon3)n(Cc3ccccc3F)n2)n1)C1(OCc2ccccc2)CC1 [Compound I-461],> 1,
CC(=O)c1cc(-c2ncc(F)c(NC(CO)CO)n2)nn1Cc1ccccc1F [Compound I-462],> 1,
CC(=O)c1cc(-c2ncc(F)c(N3CCC[C@H](C)[C@@H]3C(=O)O)n2)nn1Cc1ccccc1F [Compound I-463],0.101 to 1,
